# Test results from PubChem BioAssay AID2799 (Sanford-Burnham Center for Chemical Genomics, 2010).
# Test system: HEK293 NOD2/MDP-induced NF-kB reporter, inhibition
# Experiment: NOD2 signaling inhibitors, analog potency, SAR follow-up, cell-based, set 3 (AID 2799)
smiles,measurement,value
CCCCn1c(SCC(=O)Nc2nnc(CC)s2)nc2c1c(=O)n(C)c(=O)n2C,IC50,7.12 µM
